Patent publication US20260240792A1, “COMPOSITIONS FOR TREATING 5-HT2 CONDITIONS AND METHODS OF USING THE SAME” (Board of Supervisors of Louisiana State University and …, priority 2022, published 2026)
Several values for one entry are separate records, joined by “and”; a condition that tells them apart may be missing. Identical values can stand only once. Entries after “also recorded” stand apart in the source; their conditions may differ.

Key:
rabbits = assay: Topical ocular dosing in rabbits: observation of CNS, systemic, ocular and behavioral effects, ocular tolerability; type: in vivo, rabbit; details: for adverse events on repeated dosing / threshold dose for inducing systemic effects and minimal undesirable events: 50 μl per eye; for adverse events on repeated dosing: 2 times on day 1 then 4 times per day for 3 days
Protocol: Apparent Ocular Irritability • b. Induction of Inflammation • c. Reduction of Corneal Barrier Integrity • d. Dry Eye or Excessive Tearing • e. Induction of Neovascularization • f. Induction of Scleral Reddening
Parameters Assessed during 2 hour Observation Window (see, for example, FIG. 1):
Two studies were performed to determine at what dose between 0.01% and 0.1% were behavioral and/or systemic effects observed. 50 μL doses at 0.01%, 0.05%, and 0.075% per eye applied and assessments were made as indicated herein.
The application of most topical eye drops requires repeatedly dosing up to 9 times per day in order to maintain efficacy across the course of waking hours and have efficacious levels available during sleeping hours. The effects of repeated ocular dosing of R-DOI were assessed in a similar manner as described herein, with the exception that doses of 0.01% or 0.05% were applied repeatedly as outlined herein:
Animals from the acute dosing were continued through the repeated dosing study. Animals were dosed at the indicated concentration 2 times on day 1 and then dosed 4 times per day for 3 subsequent days. Doses were administered at 50 μl per eye into both eyes of the animal.
Rabbits were assessed for clinically clear eyes by slit lamp ophthalmic scoring. All eyes of all rabbits were normal.
Following balancing animals were treated with 50 μL of Control ophthalmic BSS/0.5% CMC or 0.01% Compound 1 in ophthalmic BSS/0.5% CMC.
Any behavioral changes were continuously monitored over the next 2.5 hours (FIG. 3).
We can determine if a single dose of the ocular composition of 0.01% R-DOI with 0.5% carboxymethylcellulose in ophthalmic BSS: • 1. Reproduced previous findings that R-DOI had IOP depressing effects. • 2. Produced any readily observable behavioral effects. • 3. Was tolerated by the eye without adverse ocular effects, including absence of: • a. Apparent Ocular Irritability • b. Induction of Inflammation • c. Dry Eye or Excessive Tearing • d. Induction of Scleral Reddening • 4. Reduced IOP • 5. Maintained Reduction in IOP • 6. Increased Tear Film Production
• Rabbits were assessed for clinically clear eyes by slit lamp ophthalmic scoring. All eyes of all rabbits were normal. • Each eye of each rabbit was then assessed for initial IOP by tonometer. • Each eye of each rabbit was assessed for tear film production by Schirmer's Tear Flo Strips at a 30 second interval of analysis. Tear measures were evaluated by a digital caliper to determine mm of tears collected. • Rabbits were sorted into two groups attempting to balance IOP numbers (one higher, one lower animal per group). • Following animals were treated with 50 μL of Control ophthalmic BSS/0.5% CMC or 0.01% R-DOI HCl in ophthalmic BSS/0.5% CMC. • Any apparent behavioral changes were continuously monitored over the next 2.5 hours. • IOP determinations were made at 30 minutes, 1 hour, 2 hours and 3 hours, 5 hours, 7 hours and 24 hours-eyes were examined closely for any adverse effects during these IOP measures. • 7 hours post treatment when IOP returned to control levels tear film production was assessed (see, for example, FIG. 9).

[1] = Weight changes across 1 week of dosing; type: in vivo, rabbit
[2] = 0.075%, 50 μL per eye, both eyes, single dose
[3] = 0.075%, 50 μL per eye, both eyes, single dose, listed as R-DOI HCl
[4] = 0.1%, 50 μL per eye, both eyes, single dose
[5] = 0.1%, 50 μL per eye, both eyes, single dose, 2 hour observation
[6] = 0.1%, 50 μL per eye, both eyes, single dose, 2 hour observation, listed as R-DOI HCl
[7] = 0.01% (1 dose/day day 1, 2 dose/day day 2, 4 dose/day days 3-5)
[8] = 0.1% day 1, then 0.05% (2 dose/day day 2, 4 dose/day days 3-5)

With `COc1cc(C[C@@H](C)N)c(OC)cc1I` [R-DOI, (R)-1-(2,5-dimethoxy-4-iodophenyl)-2-aminopropane] the “ocular tolerability of ophthalmic drops (irritability, dry eye or tearing, corneal damage, inflammation, neovascularization)” value (rabbits; 0.01% or 0.05%, repeated dosing, listed as R-DOI HCl) was “tolerated with no signs or symptoms of irritability; also recorded: Neither signs of dry eye nor excessive tear production was observed; also recorded: no damage to corneal surfaces, barrier intactness, inflammation, or neovascularization”, the “adverse events (ocular, systemic, behavioral or otherwise)” value (rabbits; 0.01%, 50 μL per eye, both eyes, single dose) was “No observable changes; also recorded: no apparent adverse events” and the “adverse events (ocular, systemic, behavioral or otherwise)” value (rabbits; 0.01%, 50 μL per eye, both eyes, single dose, listed as R-DOI HCl) was “no adverse or abnormal events observed”. The “adverse events on repeated dosing” value (rabbits; 0.01%, both eyes) was “did not cause any adverse events; also recorded: No observable changes”, the “adverse events on repeated dosing” value (rabbits; 0.01%, both eyes, listed as R-DOI HCl) was “no adverse or abnormal events observed” and the “acute ocular toxicity, irritability or adverse ocular reactions” value (rabbits; 0.01%, acute single dosing) was “did not exhibit any acute ocular toxicity, irritability, or adverse ocular reactions”. For the same compound, the “adverse events (ocular, systemic, behavioral or otherwise)” value (rabbits; 0.05%, 50 μL per eye, both eyes, single dose) was “No adverse events; also recorded: No observable changes”, the “adverse events (ocular, systemic, behavioral or otherwise)” value (rabbits; 0.05%, 50 μL per eye, both eyes, single dose, listed as R-DOI HCl) was “no adverse or abnormal events observed” and the “adverse events on repeated dosing” value (rabbits; 0.05%, both eyes) was “did not cause any adverse events; also recorded: No observable changes”. The “adverse events on repeated dosing” value (rabbits; 0.05%, both eyes, listed as R-DOI HCl) was “no adverse or abnormal events observed”, the “adverse events (ocular, systemic, behavioral or otherwise)” value (rabbits; [2]) was “No adverse events; also recorded: No CNS, Ocular Behavioral or Systemic Changes” and the “pupil dilation/contraction (miosis)” value (rabbits; [2]) was “Slight Miosis can be observed in E10 and E11”. For the same compound, the “adverse events (ocular, systemic, behavioral or otherwise)” value (rabbits; [3]) was “no adverse CNS or systemic events observed”, the “pupil dilation/contraction (miosis)” value (rabbits; [3]) was “Slight but transient miosis was evident in 2 animals” and the “time for miosis to resolve to normal after initial observation” value (rabbits; 0.075%, single dose, 2 animals) was at most 15 min. The onset of symptoms (rabbits; [4]) was 20 min, the “time post treatment at which observed effects were cleared” value (rabbits; [4]) was “cleared by one hour post administration and 1 hour to 2 hour post: Regained Responsiveness; Breathing Normal; Pupils Normal” and the “CNS associated behavioral effects” value (rabbits; [5]) was “only slight CNS associated behavioral effects were noted; also recorded: Lethargy; also recorded: Head twitch?”. For the same compound, the “pupil dilation/contraction (miosis)” value (rabbits; [5]) was “miosis or contraction of the pupil; also recorded: Miosis obvious (pupil contracted)”, the “systemic effects (respiration and heart rate)” value (rabbits; [5]) was “increased respiration and heart rate were noted; also recorded: Increased breathing and Heartrate” and the “CNS associated behavioral effects” value (rabbits; [6]) was “minimal to no head bobs/twitches observed”. The “systemic effects (respiration and heart rate)” value (rabbits; [6]) was “obvious increased respiration and heart rates”, the “time post treatment at which observed effects were cleared” value (rabbits; 0.1%, 50 μL per eye, both eyes, single dose, listed as R-DOI HCl) was “approximately 1 hour” and the “threshold dose for inducing systemic effects and minimal undesirable events” value (rabbits; both eyes) was “greater than 0.075%”. The “threshold dose for inducing systemic effects and minimal undesirable events” value (rabbits; both eyes, listed as R-DOI HCl) was 0.1%, the “systemic and behavioral threshold concentration for delivery” value (rabbits; delivered as a 50 μL drop of 0.1% ophthalmic solution to both eyes) was ≥ 100 total micrograms per animal and the “acute ocular toxicity, irritability or adverse ocular reactions” value (rabbits; topical eye drop, acute single dosing and repeated dosing trials) was “did not exhibit any acute ocular toxicity, irritability or adverse ocular reactions”. For the same compound, the “1 week weight” value [1, 7] was 3.17 kg and 2.89 kg, the “1 week weight change” value [1, 7] was 0.11 and 0.07 and the “weight with repeated dosing” value ([1]; 0.01% or 0.05% repeated dosing, 1 week) was “no loss of weight with repeated dosing”. For the same compound, the “1 week weight” value [1, 8] was 2.96 kg and 2.79 kg and the “1 week weight change” value [1, 8] was 0.08 and 0.09.
